# Assay results as given in patent publication US5532267A, “Amidinonaphthyl furancarboxylate derivatives and acid addition salts therof” (Torii & Co., Ltd., priority 1992, dated 1996).
# Legend:
# trypsin = biological target: T1, trypsin (Bos taurus, UniProt P00760); experiment: anti-trypsin activity, hydrolysis of TAME (tosylarginine methyl ester); format: biochemical; conditions: hydrolysis of TAME; read-out: Try: molar concentration inhibiting 50% of enzyme activity (IC50)
# T1 sequence (P00760 24-246): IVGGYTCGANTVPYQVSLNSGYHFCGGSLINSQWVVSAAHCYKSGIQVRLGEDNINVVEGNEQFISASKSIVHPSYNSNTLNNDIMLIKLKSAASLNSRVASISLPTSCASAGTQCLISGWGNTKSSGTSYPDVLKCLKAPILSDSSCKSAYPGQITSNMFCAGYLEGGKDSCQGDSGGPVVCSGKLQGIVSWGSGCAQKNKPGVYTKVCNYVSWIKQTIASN
# plasmin = plasmin (Homo sapiens, UniProt P00747); experiment: anti-plasmin activity, hydrolysis of TAME (tosylarginine methyl ester); format: biochemical; conditions: hydrolysis of TAME; read-out: Pla: molar concentration inhibiting 50% of enzyme activity (IC50)
# plasmin, sequence (P00747 581-810 limits assumed, species assumed): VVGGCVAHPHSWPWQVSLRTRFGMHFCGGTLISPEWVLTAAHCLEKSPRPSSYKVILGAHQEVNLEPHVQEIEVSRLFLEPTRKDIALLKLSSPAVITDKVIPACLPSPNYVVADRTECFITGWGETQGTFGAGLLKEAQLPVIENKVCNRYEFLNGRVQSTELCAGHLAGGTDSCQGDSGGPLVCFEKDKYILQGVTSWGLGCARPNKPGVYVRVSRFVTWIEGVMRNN
# plasmin, sequence (P00747 97-580 partner limits assumed, species assumed): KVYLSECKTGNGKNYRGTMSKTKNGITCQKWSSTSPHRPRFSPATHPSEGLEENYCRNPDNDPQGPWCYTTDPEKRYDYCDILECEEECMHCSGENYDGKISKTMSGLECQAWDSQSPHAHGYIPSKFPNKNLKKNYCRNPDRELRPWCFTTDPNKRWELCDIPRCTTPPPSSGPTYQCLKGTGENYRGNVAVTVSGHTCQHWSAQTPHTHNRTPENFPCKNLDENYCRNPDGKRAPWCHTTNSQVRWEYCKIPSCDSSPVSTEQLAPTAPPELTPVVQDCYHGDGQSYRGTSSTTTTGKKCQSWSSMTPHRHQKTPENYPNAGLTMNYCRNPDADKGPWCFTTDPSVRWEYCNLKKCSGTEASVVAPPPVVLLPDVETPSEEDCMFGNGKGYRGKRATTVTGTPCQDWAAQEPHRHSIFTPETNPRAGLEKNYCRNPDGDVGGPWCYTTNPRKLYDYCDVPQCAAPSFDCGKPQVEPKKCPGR
# Procedure: (§1) The values in Table 1 represent molar concentrations (IC50) of test compounds which inhibit 50% of the activity of each enzyme to hydrolyze TAME (tosylarginine methyl ester). The anti-trypsin, anti-plasmin, anti-kallikrein and anti-thrombin activities were determined according to the method of Muramatsu et al. (J. Biochem. (1965), volume 58, page 214).
# C1r = biological target: T2, C1r (Homo sapiens, UniProt P00736); experiment: anti-complement (anti-C1 esterase) activity, C1r hydrolysis of AAME (acetyl-arginine methyl ester); format: biochemical; conditions: hydrolysis of AAME; read-out: Clr: molar concentration inhibiting 50% of C1r activity (IC50)
# T2 sequence (P00736 18-705): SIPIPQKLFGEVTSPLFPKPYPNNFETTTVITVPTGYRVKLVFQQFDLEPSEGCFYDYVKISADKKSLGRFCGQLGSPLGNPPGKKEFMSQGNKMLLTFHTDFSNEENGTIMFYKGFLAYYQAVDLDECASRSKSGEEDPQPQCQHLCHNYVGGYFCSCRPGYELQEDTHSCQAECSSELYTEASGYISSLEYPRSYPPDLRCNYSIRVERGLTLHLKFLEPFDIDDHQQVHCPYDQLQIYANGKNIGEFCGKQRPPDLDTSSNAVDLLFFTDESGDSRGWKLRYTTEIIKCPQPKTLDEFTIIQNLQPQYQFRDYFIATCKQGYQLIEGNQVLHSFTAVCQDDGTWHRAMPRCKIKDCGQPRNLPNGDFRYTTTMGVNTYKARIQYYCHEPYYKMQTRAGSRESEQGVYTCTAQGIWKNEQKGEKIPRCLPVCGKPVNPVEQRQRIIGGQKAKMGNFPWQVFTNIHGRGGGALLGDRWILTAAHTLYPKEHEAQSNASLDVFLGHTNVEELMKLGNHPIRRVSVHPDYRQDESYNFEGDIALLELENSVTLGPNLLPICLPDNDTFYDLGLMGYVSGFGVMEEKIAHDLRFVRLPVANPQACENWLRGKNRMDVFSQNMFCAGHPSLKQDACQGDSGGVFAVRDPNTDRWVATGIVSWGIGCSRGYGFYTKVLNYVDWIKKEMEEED
# C1s = biological target: T3, C1s (Homo sapiens, UniProt P09871); experiment: anti-complement (anti-C1 esterase) activity, C1s hydrolysis of ATEE (acetyltyrosine ethyl ester); format: biochemical; conditions: hydrolysis of ATEE; read-out: Cls: molar concentration inhibiting 50% of C1s activity (IC50)
# T3 sequence (P09871 16-688): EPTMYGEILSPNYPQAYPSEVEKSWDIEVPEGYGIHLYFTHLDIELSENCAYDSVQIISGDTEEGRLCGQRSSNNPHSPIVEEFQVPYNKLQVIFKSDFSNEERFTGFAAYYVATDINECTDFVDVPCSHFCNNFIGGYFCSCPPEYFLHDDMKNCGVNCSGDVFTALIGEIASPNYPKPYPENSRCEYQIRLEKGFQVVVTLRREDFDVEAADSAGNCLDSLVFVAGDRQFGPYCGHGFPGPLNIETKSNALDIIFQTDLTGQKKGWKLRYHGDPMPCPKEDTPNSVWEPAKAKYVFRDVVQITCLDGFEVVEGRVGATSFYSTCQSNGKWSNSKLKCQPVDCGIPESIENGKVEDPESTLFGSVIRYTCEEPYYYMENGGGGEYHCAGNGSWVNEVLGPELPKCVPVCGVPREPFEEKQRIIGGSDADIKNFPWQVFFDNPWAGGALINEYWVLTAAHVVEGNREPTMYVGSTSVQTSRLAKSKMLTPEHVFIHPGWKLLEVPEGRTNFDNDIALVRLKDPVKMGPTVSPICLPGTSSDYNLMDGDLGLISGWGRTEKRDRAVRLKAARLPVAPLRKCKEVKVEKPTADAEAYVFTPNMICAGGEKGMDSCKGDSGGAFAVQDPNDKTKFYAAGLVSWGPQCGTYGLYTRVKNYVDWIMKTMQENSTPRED
# Procedure: The anti-C1 esterase (C1r, C1s) activity was determined according to the method of Okamura et al. (Biochem. Biophys. Acta (1973), volume 295, pages 252-257). […] The values for C1s represent molar concentrations (IC50) of test compounds which inhibit 50% of the activity of C1s to hydrolyze ATEE (acetyltyrosine ethyl ester).
# kallikrein = experiment: anti-kallikrein activity, hydrolysis of TAME (tosylarginine methyl ester); format: biochemical; conditions: hydrolysis of TAME; read-out: Kal: molar concentration inhibiting 50% of enzyme activity (IC50)
# Procedure: as §1
# thrombin = thrombin (Homo sapiens, UniProt P00734); experiment: anti-thrombin activity, hydrolysis of TAME (tosylarginine methyl ester); format: biochemical; conditions: hydrolysis of TAME; read-out: Thr: molar concentration inhibiting 50% of enzyme activity (IC50)
# Procedure: as §1
# adjuvant arthritis = experiment: Effectiveness in treating adjuvant arthritis (Mycobacterium butyricum); format: in vivo, rat; conditions: 60 mg/kg, oral, day -1 to day 13
# Procedure: Adjuvant arthritis is known as a representative model of autoimmune diseases and is a effective means of testing agents to treat human rheumatoid arthritis (Encyclopedia of Immunology, edited by I. M. Roitt, Academic Press, 1992; Otterness, I. G., et al., J. of Rheumatology (1991), volume 18, pages 505-511),
# The method of experiment was as follows. A 0.6% Mycobacterium butyricum liquid paraffin suspension, 0.1 ml/animal, was administered to a rat at a subcutaneous site of left hind-limb sole to induce adjuvant arthritis. The present compound was orally administered (in the form of a suspension in water) consecutively from 1 day before the induction to 13 days after the induction. The efficacy of the present compound on adjuvant arthritis was evaluated by examining the swelling accompanied by red spots and subcutaneous knots at the fore-limb, hind-limb, tail, ear and periphery of eye with the lapse of days (on the 8th, 10th, 12th, 14th, 16th and 18th days after adjuvant administration), expressing the results in terms of scores according to the method of F. D. Wood et al. (Int. Arch. Allergy (1969), volume 35, pages 456-467), and calculating the percentage inhibition relative to the control group. Thus, the higher value of percentage inhibition indicates the higher effectiveness.
# Masugi's nephritis = experiment: Effectiveness in treating Masugi's nephritis (experimental glomerulonephritis), protein in urine; format: in vivo, rat; conditions: 10 mg/kg, oral; mean ± standard deviation, 7 animals; control group 40.8 ± 15.1
# Procedure: […] […] As the index to effectiveness, the protein concentration in urine was determined. That is, when inflammation develops in the kidney, it causes damage to renal tubules, etc., and a resultant increase in protein concentration in urine.
smiles,measurement,setting,value
"Cl.N=C(N)c1ccc2cc(OC(=O)c3ccc(CNC(=O)CC(=O)O)o3)ccc2c1 [Example 17, 6-Amidino-2-naphthyl 5-carboxyacetylaminomethylfuran-2-carboxylate hydrochloride]",IC50,trypsin,470 nM
same,IC50,plasmin,43 nM
same,IC50,C1r,1700 nM
same,IC50,C1s,53 nM
same,IC50,kallikrein,1100 nM
same,IC50,thrombin,1900 nM
same,Percentage inhibition (arthritis score),adjuvant arthritis,75.1%
same,Protein concentration in urine,Masugi's nephritis,2.0 ± 2.0 mg/mL
